Source: patent US20120270812A1, “COMPOSITIONS, METHODS, AND KITS FOR DETERMINING AN ALKYL TRANSFERASE” (Duke University, priority 2009, published 2012)
Read-outs that look alike come from different tables or passages of the source.

Key:
[1] = biological target: T1, human AGT (Homo sapiens, UniProt P16455); assay: Depletion (inactivation) of cellular AGT activity in CHO cells transfected with pCMV-AGT; format: cell-based
T1 construct: expressed in transfected cells; host or cells: CHO-K1 cells, geneticin-selected clones, plasmid pCMV-AGT
T1 sequence (P16455 1-207): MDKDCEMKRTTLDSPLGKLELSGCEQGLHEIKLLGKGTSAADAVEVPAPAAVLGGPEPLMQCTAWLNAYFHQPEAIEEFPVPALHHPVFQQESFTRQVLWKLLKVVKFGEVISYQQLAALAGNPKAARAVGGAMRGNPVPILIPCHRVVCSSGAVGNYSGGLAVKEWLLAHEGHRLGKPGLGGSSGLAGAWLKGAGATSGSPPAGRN
Experimental: FIG. 8 is a graph showing depletion of cellular AGT activity by unlabeled 6-(4-fluoro-benzyloxy)-9H-purin-2-ylamine (O^6-4-fluorobenzylguanine (FBG)) and 6-(iodo-benzyloxy)-9H-purin-2-ylamine (O^6-iodobenzylguanine (IBG)). CHO cells transfected with pCMV-AGT were incubated with varying concentrations of IBG (▪) or FBG ([…]) for 4 hours, and the AGT activity associated with the cells was determined. The results are expressed as the percentage of the AGT activity present in cell cultures that were not treated with FBG or IBG.
CHO-K1 cells were maintained in αMEM (Gibco, Grand Island, N.Y.) containing 10% fetal bovine serum. […]
Inactivation of cellular AGT was measured by adding varying concentrations of FBG or IBG to cell cultures that had reached 80-90% confluence. […] AGT activity was measured by assaying the loss of [^3H]—O^6-methylguanine from a [^3H] methylated calf thymus DNA substrate as described by, e.g., Dolan et al., PNAS, 87:5368-5372 (1990). The results are expressed as the percentage of the AGT activity present in cell cultures that were not treated with FBG or IBG. […]
Because IBG is a new compound, its ability to deplete AGT was determined using CHO cells transfected with pCMV-AGT to express AGT. In parallel, the ability of FBG to deplete AGT under the same conditions also was measured. […]

[2] = biological target: T2, Purified human AGT with a (His)6 tag (Homo sapiens, UniProt P16455); assay: In vitro binding of radiolabeled FBG or IBG to purified AGT (TCA precipitation); conditions: for maximum observed AGT to BSA binding ratio: 10 μg AGT vs 10 μg BSA (nonspecific protein); for unlabeled compound concentration above which saturation was observed: binding to purified AGT
T2 construct: (His)6
T2 sequence (P16455 1-207): T1 sequence (P16455 1-207)
Experimental: FIG. 9 is a graph showing binding of [^18F] FBG to purified AGT as a function of unlabeled FBG concentration. […] FBG was incubated for 30 minutes at 37° C., in the presence or absence of increasing amounts of unlabeled FBG, with 10 μg of AGT ([…]), or to control for nonspecific binding, 10 μg of BSA (▴) in a Tris-buffer. The protein-associated activity was determined by TCA precipitation.
IBG to purified AGT as a function of unlabeled IBG concentration. […] IBG with AGT ([…]) or BSA (▴).
Purified human AGT with a (His)6 tag was generously provided by Dr. Anthony E. Pegg of Hershey Medical Center, Pennsylvania State University. […] The incubation carried out in 0.1 ml 50 mM Tris-Cl, pH 7.5, 5 mM DTT, 0.1 mM EDTA in the presence of 10 μg calf thymus DNA. […] The precipitated proteins were collected on GF-C (Whatman) filters, which were washed extensively with 5% TCA. The results are expressed as the percentage of input activity retained on the filter. For each concentration, the assay was performed in triplicate.
To investigate whether AGT recognizes radiolabeled FBG and IBG as substrates, the efficacy of transfer of their radiolabeled benzyl groups to AGT was determined using the purified protein. […] The preparation of ^13C-and ^14C-labeled O^6-benzylguanosines has been reported by, e.g., Madelmont et al., J. Lab. Comp.

[3] = Stability during reversed-phase chromatography with 0.1% TFA in water; format: physicochemical; conditions: 0.1% TFA in water (pH 2) as a co-solvent
Text: A combination of radio-TLC, and normal-phase and reversed-phase HPLC was used to verify that the final product was indeed IBG and not the 3-iodobenzyl alcohol. Very little if any of 3-iodobenzyl alcohol was detected in the reaction mixture. In addition, the final product bound to AGT specifically (vide infra), which further supports its authenticity. […] This may be due to the lack of water in the reaction mixture or a rate factor may be involved. Both IBG and FBG were stable during reversed-phase chromatography involving 0.1% TFA in water (pH 2) as a co-solvent.

| stability during reversed-phase chromatography [3] | maximum observed AGT to BSA binding ratio [2] | unlabeled compound concentration above which saturation was observed [2] | Structure (SMILES) | other results |
| --- | --- | --- | --- | --- |
| stable |  |  | Nc1nc(OCc2ccc(F)cc2)c2nc[nH]c2n1 [FBG, 6-(4-fluoro-benzyloxy)-9H-purin-2-ylamine, reference compound] | IC50 ([1]; CHO cells transfected with pCMV-AGT, 4 hours of drug treatment, read-out: IC50 for depleting AGT): 0.05 µM; IC50 ([2]; 10 μg AGT, 30 minutes at 37° C., read-out: IC50 (binding to purified AGT as a function of unlabeled compound concentration)): 5 µM |
| stable |  |  | Nc1nc(OCc2cccc(I)c2)c2[nH]cnc2n1 [IBG, 6-(3-Iodo-benzyloxy)-9H-purin-2-ylamine] | IC50 [1]: 0.015 µM; IC50 [2]: ~6 µM |
|  | 661 | higher than 2 μM | Nc1nc(OCc2ccc([18F])cc2)c2nc[nH]c2n1 [[^18F]FBG, 6-(4-[^18F]Fluoro-benzyloxy)-9H-purin-2-ylamine] | percent of input activity that bound to AGT, maximum ([2]; at 0.5 μM of unlabeled FBG, 10 μg AGT, 30 minutes at 37° C.): about 90% |
|  | 35 | higher than 3 μM | Nc1nc(OCc2cccc([131I])c2)c2nc[nH]c2n1 [[^131I]IBG, 6-(3-[^131I]Iodo-benzyloxy)-9H-purin-2-ylamine] | percent of radiolabeled compound bound to AGT ([2]; over a wide range of unlabeled IBG concentrations, 10 μg AGT, 30 minutes at 37° C.): About 60% |
